Results from PMC6972920, “Structure-based development of caged dopamine D2/D3 receptor antagonists” (Scientific Reports, 2020).
Entries after “also recorded” stand apart in the source; their conditions may differ. Like-named read-outs stand apart in the source and are kept apart here. Blank lines part the entries; values can stand above or below the molecule they belong to.

Assays:
[1] = Compound stability and photolysis in aqueous buffer monitored by HPLC; assay type: physicochemical; settings: for behaviour upon illumination with λp = 365 nm (in words): aqueous buffer, LED 365 nm, HPLC; for stability in the absence of light (in words): dark, storage and solution, HPLC/LCMS
Description: All measurements were performed in aqueous buffer solution. Compound stability and photolysis was monitored by HPLC. […] Excitation of NB- and DMNB-type cages to trigger photolysis is usually performed with light of 300–400 nm. This absorption profile may limit the wavelength range for cage photolysis, as simultaneous excitation of the core pharmacophore may trigger photolytic degradation of the desired product. We performed photolysis experiments using a near UV light-emitting diode (LED) light source with a peak wavelength of λp = 365 nm and a spectrum half width of Δλ = 9 nm.
No unspecific degradation of the pharmacophore was observed, resulting in constant concentration of the desired product. […] The exposure to ambient light for longer time led to partial photolytic degradation. After incubation in aqueous buffer at ambient light for 1 h, we detected remaining 51% and 62% of the initial concentrations of 4 (MG307) and 5, respectively.
For compound characterization, UV/Vis absorption spectra of samples with c = 0.1 mM in methanol were measured on an Analytik Jena Specord 200 Plus spectrometer (λ = 210–400 nm). Irradiation experiments to trigger photolysis were performed in open HPLC glass vials using a LED (λ = 365 nm, 4.5 V, 0.7 A) to irradiate the samples from top. An aqueous buffer solution served as solvent (50 mM Tris, 1 mM EDTA, 50 mM MgCl2, 100 µg/ml bacitracin, 5 µg/ml soybean trypsin inhibitor), with initial sample concentrations of […] and sample volumes of 100 µl. Photolysis was monitored by HPLC as specified before (eluent system 1). […] Unless specified differently, all experiments were performed in triplicate.

[2] = target: T1, human dopamine receptor subtype D4.4 (Homo sapiens, UniProt P21917); assay: Radioligand displacement, [3H]spiperone, CHO cell membranes; assay type: binding
T1 sequence (P21917 1-419): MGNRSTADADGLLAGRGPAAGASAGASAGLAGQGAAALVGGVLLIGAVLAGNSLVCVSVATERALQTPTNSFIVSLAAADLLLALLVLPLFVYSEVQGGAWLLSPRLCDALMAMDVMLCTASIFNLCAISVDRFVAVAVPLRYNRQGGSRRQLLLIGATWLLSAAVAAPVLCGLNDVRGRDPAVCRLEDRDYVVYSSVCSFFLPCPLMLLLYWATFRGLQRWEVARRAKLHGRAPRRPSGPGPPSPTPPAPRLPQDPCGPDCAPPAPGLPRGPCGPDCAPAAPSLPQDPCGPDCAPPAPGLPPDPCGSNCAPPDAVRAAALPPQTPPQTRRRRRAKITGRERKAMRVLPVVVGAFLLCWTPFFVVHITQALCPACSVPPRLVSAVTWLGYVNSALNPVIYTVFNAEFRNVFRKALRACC

[3] = target: human dopamine receptor subtype D2L (Homo sapiens, UniProt P14416); assay: as above; assay type: binding
[4] = target: human dopamine receptor subtype D2S (Homo sapiens, UniProt P14416); assay: as above; assay type: binding
[5] = target: human dopamine receptor subtype D3 (Homo sapiens, UniProt P35462); assay: as above; assay type: binding; settings: mean ± SEM of 4-9 experiments, compounds 1, 2, 3: ± SD of two experiments
[6] = target: all dopamine receptor subtypes; assay: Radioligand binding, text summary over all dopamine receptor subtypes tested; parameters: species or system human; settings: range over D2L, D2S, D3, D4.4, stated in text; read-out: Ki values towards all dopamine receptor subtypes (range)
[7] = target: T2, human adrenergic α2A receptor (Homo sapiens, UniProt P08913); assay: Competition binding, [3H]RX821002, HEK293T membranes
T2 construct: expressed in transfected cells; host or cells: HEK293T cells, transient transfection
T2 sequence (P08913 1-465): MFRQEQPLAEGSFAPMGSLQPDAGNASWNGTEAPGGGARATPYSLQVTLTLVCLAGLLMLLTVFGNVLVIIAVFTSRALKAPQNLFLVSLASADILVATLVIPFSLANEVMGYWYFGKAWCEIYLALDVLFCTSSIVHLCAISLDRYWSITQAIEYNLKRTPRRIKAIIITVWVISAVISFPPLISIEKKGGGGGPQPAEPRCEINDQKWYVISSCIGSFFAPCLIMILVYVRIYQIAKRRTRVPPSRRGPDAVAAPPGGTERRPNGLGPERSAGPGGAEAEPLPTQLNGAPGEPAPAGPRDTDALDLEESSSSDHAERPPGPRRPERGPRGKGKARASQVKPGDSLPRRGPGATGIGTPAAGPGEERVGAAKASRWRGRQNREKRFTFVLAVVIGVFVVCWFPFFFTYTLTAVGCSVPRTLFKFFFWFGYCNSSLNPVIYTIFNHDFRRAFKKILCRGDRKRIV

[8] = target: T3, human dopamine D1 receptor (Homo sapiens, UniProt P21728); assay: Competition binding, [3H]SCH23390, HEK293T membranes
T3 construct: expressed in transfected cells; host or cells: HEK293T cells, transient transfection

[9] = target: T4, human dopamine D5 receptor (Homo sapiens, UniProt P21918); assay: as above
T4 construct: expressed in transfected cells; host or cells: HEK293T cells, transient transfection

[10] = target: T5, human serotonin 5-HT1A receptor (Homo sapiens, UniProt P08908); assay: Competition binding, [3H]WAY600135, HEK293T membranes; settings: ± SD of two experiments
T5 construct: expressed in transfected cells; host or cells: HEK293T cells, transient transfection
T5 sequence (P08908 1-422): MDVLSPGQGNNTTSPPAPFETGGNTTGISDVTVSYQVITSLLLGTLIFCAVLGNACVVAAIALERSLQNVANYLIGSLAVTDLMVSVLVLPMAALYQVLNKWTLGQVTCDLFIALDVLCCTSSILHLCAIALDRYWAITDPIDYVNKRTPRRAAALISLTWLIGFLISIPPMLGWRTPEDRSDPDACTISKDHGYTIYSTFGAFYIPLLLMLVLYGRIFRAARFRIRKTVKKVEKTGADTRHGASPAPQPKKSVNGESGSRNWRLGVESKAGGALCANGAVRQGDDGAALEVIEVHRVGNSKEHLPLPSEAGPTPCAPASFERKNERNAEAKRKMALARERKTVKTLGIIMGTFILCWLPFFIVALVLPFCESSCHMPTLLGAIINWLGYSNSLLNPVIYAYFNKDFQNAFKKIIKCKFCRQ

[11] = target: T6, human serotonin 5-HT2A receptor (Homo sapiens, UniProt P28223); assay: Competition binding, [3H]ketanserin, HEK293T membranes; settings: ± SD of two experiments
T6 construct: expressed in transfected cells; host or cells: HEK293T cells, transient transfection

[12] = target: T7, human adrenergic α1A receptor (Homo sapiens, UniProt P35348); assay: Competition binding, [3H]prazosin, HEK293T membranes; settings: ± SD of two experiments
T7 construct: expressed in transfected cells; host or cells: HEK293T cells, transient transfection
T7 sequence (P35348 1-466): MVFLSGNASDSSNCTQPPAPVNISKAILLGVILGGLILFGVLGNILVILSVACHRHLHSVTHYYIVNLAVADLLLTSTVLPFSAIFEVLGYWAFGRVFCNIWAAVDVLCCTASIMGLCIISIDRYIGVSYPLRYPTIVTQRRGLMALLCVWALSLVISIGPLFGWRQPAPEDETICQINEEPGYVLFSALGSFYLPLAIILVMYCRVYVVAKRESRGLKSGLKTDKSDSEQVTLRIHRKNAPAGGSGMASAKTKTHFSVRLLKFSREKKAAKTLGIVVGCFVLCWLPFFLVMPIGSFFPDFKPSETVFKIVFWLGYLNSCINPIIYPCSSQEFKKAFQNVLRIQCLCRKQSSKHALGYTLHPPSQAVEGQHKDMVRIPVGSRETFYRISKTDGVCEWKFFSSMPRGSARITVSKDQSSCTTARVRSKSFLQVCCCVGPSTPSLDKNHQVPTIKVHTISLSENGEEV

[13] = target: T8, human adrenergic β2 receptor (Homo sapiens, UniProt P07550); assay: Competition binding, [3H]CGP12177, HEK293T membranes; settings: ± SD of two experiments
T8 construct: expressed in transfected cells; host or cells: HEK293T cells, transient transfection

[14] = target: D2 and D3 receptors; assay: Radioligand binding, summary over D2 and D3 subtypes; parameters: species or system human; settings: range over D2L, D2S, D3, stated in text
[15] = target: T9, dopamine D2S receptor co-expressed with hybrid Gαqi in HEK293T cells (Homo sapiens, UniProt P14416); assay: IP accumulation assay (IP-One HTRF), agonist / inverse agonist effect; assay type: cell-based
T9 construct: expressed in transfected cells; host or cells: HEK-293T cells, transient co-transfection

[16] = target: T9, dopamine D2S receptor co-expressed with hybrid Gαqi in HEK293T cells; assay: IP accumulation assay (IP-One HTRF), inhibition of 10 nM quinpirole; assay type: cell-based
[17] = target: T10, D2S receptor (HEK293T cells co-transfected with D2S and Gαqi) (Homo sapiens, UniProt P14416); assay: Illumination experiment: test compound solution irradiated at 365 nm before addition to cells, quinpirole stimulated IP accumulation; assay type: cell-based; settings: controls; 10 nM quinpirole
T10 construct: expressed in transfected cells; host or cells: HEK-293T cells, transient co-transfection
Source text: […]. Mean curves ± SEM of 4–9 individual curves each done in triplicates. […]. Mean curves from 3–4 experiments each done in duplicate. […]. While 4 (MG307) (green bars) is completely released after 10 sec, the uncaging of 5 (red bars) needs 20 sec. […]. Mean bars ± SEM derived from 3–11 individual experiments each done in quintuplicates. Irradiation with a solution of test compound before addition to the cellular test system. […]. Means ± SEM from 6 experiments in quintuplicates.
[…]. Actually, we observed an onset of a strong inverse agonist effect on quinpirole-induced IP accumulation after irradiation of the nitrobenzyl-caged compound 4 (MG307). […] […]. […] To complement uncaging of the test compounds by irradiation of the test compounds before addition to receptor by a biologically more significant experiment, we investigated whether uncaging can also be accomplished directly in the cellular system. […] In fact, quinpirole-promoted IP accumulation was substantially attenuated after irradiation for 10 or 20 sec. […] […]. […] […].
HEK293T cells were transiently co-transfected with D2S and Gαqi. Solutions of the test compounds were irradiated at λ = 365 nm using the same LED as for the photochemistry experiments (see above) for 2, 5, 10 or 20 sec and the test compound was added to the cell system immediately after illumination. […]. Accumulation of IP was determined as described above. […]. Basal activity (buffer) was set as 0%. As a control, quinpirole was irradiated for 20 sec without observing any difference to the effect of the untreated analog. […]. All irradiation experiments were carried out in the dark or under dim light.

[18] = [3H]spiperone, mean ± SEM of 4-9 experiments, compounds 1, 2, 3: ± SD of two experiments, read-out: Ki value D4.4
[19] = [3H]spiperone, mean ± SEM of 4-9 experiments, compounds 1, 2, 3: ± SD of two experiments, read-out: Ki value D2L
[20] = [3H]spiperone, mean ± SEM of 4-9 experiments, compounds 1, 2, 3: ± SD of two experiments, read-out: Ki value D2S

Sequence of human dopamine receptor subtype D2S (P14416 1-414 isoform P14416-2): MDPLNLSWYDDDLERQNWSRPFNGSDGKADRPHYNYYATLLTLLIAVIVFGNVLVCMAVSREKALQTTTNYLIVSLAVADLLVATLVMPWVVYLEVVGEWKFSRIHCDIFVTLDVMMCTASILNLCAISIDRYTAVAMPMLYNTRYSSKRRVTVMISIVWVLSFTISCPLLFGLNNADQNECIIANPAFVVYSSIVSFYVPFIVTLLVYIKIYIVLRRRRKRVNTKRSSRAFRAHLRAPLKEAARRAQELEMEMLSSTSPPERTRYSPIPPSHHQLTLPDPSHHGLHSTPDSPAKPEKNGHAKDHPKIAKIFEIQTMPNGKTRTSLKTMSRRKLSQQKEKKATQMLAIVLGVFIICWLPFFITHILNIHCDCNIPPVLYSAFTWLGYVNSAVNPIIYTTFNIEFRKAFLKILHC
T9 sequence (P14416 1-414 isoform P14416-2): as above
Sequence of human dopamine receptor subtype D2L (P14416 whole entry): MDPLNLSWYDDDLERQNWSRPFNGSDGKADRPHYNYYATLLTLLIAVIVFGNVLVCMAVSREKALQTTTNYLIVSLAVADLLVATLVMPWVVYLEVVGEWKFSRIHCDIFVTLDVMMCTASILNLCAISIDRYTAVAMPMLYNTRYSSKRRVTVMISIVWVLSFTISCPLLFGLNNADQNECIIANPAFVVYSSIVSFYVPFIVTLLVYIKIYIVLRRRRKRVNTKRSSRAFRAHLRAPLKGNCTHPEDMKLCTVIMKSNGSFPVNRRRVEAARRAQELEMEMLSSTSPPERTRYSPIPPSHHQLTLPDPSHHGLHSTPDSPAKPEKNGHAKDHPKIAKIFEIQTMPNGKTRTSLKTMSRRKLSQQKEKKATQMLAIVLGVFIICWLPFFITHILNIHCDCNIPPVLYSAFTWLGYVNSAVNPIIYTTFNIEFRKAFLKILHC
T10 sequence (P14416 1-414 isoform P14416-2): as the sequence (P14416 1-414 isoform P14416-2) above
Sequence of human dopamine receptor subtype D3 (P35462 whole entry): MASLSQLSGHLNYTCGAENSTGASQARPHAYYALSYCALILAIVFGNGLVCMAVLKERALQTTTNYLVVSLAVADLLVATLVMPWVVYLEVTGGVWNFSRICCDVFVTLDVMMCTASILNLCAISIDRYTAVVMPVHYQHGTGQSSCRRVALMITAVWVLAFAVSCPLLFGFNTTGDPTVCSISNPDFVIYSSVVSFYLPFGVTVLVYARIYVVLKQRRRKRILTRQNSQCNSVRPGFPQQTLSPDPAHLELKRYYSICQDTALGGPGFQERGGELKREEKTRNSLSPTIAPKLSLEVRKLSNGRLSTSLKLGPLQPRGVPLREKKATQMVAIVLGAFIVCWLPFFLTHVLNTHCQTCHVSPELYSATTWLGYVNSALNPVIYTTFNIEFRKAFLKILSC
T8 sequence (P07550 whole entry): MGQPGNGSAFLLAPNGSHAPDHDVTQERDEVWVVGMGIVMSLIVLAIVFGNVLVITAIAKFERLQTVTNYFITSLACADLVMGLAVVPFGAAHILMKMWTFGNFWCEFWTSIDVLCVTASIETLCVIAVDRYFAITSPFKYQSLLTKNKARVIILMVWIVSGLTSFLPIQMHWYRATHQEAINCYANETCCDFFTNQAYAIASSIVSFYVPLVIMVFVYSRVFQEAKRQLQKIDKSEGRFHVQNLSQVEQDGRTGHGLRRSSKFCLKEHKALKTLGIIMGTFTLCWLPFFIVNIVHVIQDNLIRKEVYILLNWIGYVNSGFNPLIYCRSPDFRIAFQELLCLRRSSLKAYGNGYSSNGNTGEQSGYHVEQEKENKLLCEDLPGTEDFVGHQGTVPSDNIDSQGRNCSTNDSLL
T4 sequence (P21918 whole entry): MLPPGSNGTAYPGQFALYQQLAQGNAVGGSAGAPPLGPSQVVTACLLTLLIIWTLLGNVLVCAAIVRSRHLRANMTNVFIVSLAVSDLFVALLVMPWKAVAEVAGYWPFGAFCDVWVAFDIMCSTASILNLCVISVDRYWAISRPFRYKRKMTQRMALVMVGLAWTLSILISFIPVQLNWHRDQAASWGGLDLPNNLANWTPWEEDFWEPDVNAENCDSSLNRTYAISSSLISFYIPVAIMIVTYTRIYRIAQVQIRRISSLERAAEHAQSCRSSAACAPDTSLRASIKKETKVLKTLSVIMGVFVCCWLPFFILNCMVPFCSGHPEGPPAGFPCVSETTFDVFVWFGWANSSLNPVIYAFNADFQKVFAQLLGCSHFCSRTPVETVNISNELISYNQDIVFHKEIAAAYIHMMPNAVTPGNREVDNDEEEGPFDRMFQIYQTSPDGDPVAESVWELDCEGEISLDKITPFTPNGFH
T6 sequence (P28223 whole entry): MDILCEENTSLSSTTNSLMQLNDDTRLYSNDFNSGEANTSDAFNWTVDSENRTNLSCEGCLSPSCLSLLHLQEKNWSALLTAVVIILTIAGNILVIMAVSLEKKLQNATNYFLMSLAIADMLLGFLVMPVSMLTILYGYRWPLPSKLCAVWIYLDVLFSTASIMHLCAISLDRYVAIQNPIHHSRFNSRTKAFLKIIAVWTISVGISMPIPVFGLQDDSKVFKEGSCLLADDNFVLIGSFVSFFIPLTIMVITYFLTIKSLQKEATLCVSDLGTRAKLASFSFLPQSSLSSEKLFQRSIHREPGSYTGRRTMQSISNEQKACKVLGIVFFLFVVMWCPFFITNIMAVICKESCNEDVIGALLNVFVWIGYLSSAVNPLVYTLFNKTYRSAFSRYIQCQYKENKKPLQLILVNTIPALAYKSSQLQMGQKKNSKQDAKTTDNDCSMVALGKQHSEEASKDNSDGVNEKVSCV
T3 sequence (P21728 whole entry): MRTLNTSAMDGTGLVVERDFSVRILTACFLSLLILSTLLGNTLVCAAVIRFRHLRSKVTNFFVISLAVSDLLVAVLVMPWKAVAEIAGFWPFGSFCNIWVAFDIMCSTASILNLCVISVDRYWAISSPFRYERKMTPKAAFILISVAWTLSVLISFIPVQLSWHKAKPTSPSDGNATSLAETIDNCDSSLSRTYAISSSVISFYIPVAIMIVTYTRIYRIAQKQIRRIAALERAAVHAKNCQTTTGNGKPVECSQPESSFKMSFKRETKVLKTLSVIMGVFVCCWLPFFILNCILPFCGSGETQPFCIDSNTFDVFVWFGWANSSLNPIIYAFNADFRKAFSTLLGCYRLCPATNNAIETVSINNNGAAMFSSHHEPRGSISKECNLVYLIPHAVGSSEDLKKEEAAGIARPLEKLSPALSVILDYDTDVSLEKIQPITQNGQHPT

Compound: CCc1cc(Cl)c(OC)c(C(=O)NC[C@@H]2CCCN2CC)c1OCc1cc(OC)c(OC)cc1[N+](=O)[O-] [compound 2]
- behaviour upon illumination with λp = 365 nm (in words) [1]: Rapid photolytic degradation
- stability in the absence of light (in words) [1]: not fully stable and slowly decomposed to liberate eticlopride even in the absence of light

Compound: COC1(C2=NCCN2)COc2ccccc2O1 (centres unmarked) [[^3H]RX801002]
- Kd ([7]; HEK293T membranes, read-out: KD of radioligand for α2A): 0.29 nM

Compound: CCc1cc(Cl)c(OC)c(C(=O)NC[C@@H]2CCCN2CC)c1O [eticlopride]
- Ki [3]: 0.25 ± 0.062 nM
- Ki [4]: 0.28 ± 0.03 nM
- Ki [2]: 120 ± 19 nM
- Ki [8]: 23000 ± 5800 nM
- Ki [9]: 46000 ± 1100 nM
- Ki [10]: 570 ± 250 nM
- Ki [11]: 220 ± 23 nM
- Ki [12]: 81 ± 2.1 nM
- Ki ([7]; [3H]RX821002, ± SD of two experiments): 66 ± 19 nM
- Ki [13]: 4900 ± 210 nM
- Ki [14]: 0.21 to 0.28 nM
- behaviour upon illumination with λp = 365 nm (in words) [1]: fast decomposition rate towards light with λp = 365 nm

More lines, main results first:

- Ki [2, 18]: 2800 ± 1200 nM
Compound: CCc1cc(Cl)c(OC)c(C(=O)NC[C@@H]2CCCN2CC)c1OCc1ccccc1[N+](=O)[O-] [compound 1]
- behaviour upon illumination with λp = 365 nm (in words) [1]: complete photolysis after seconds of irradiation
- stability in the absence of light (in words) [1]: not fully stable and slowly decomposed to liberate eticlopride even in the absence of light

- Ki [3, 19]: 4800 ± 3500 nM
- Ki [4, 20]: 6200 ± 3500 nM
- Ki [5]: 5600 ± 5400 nM
- Ki [6]: 4800 to 22000 nM
Compound: CCc1cc(Cl)c(OC)c(C(=O)NC[C@@H]2CCCN2CC)c1OCc1ccccc1 [compound 3]

- Ki [3, 19]: 1300 ± 250 nM
- Ki [4, 20]: 510 ± 120 nM
- Ki [5]: 480 ± 120 nM
- Ki [2, 18]: 7700 ± 1100 nM
- Emax ([15]; HEK-293T, relative to full effect of quinpirole (100%) and buffer (0%)): -22 ± 1.8%
- EC50 ([15]; IP accumulation, ± SEM, 3-8 experiments, negative Emax = inverse agonist effect): 480 ± 310 nM
- Emax ([16]; HEK-293T, in presence of 10 nM quinpirole, relative to quinpirole (100%) and buffer (0%), read-out: inhibitory effect Emax): -17 ± 9.8%
- IC50 ([16]; blocking of the agonist effect of 10 nM quinpirole, ± SEM, 4-6 experiments, read-out: inhibitory effect IC50): 5500 ± 2900 nM
Compound: CCc1ccc(OC)c(C(=O)NC[C@@H]2CCCN2CC)c1OCc1ccccc1 [compound 6]
- functional properties in IP accumulation assay (in words) ([15]; D2S receptors): inverse agonist properties were observed as well, but potency was low
- effect of irradiation at 365 nm for 20 sec on the compound's effect on IP accumulation (in words) [17]: does not affect; also recorded: no significant effect
